{"source": "ChEMBL document CHEMBL6134792", "about": "“Discovery of selective LATS inhibitors via scaffold hopping: enhancing drug-likeness and kinase selectivity for potential applications in regenerative medicine” (RSC Med Chem, 2024)", "assay": "Clearance in male mouse at 20 mg/kg, po or 5 mg/kg, iv by LC-MS/MS analysis", "type": "ADME, organism-based", "conditions": "in vivo", "data": [{"compound": "O=C(/N=c1\\sccn1Cc1ccccc1)c1n[nH]c2ncccc12", "values": [{"measurement": "CL", "value": 28.3, "unit": "mL/min/kg"}]}]}
